Test results as given in patent publication US8397806B2, “Method for pre-treatment of subterranean sites adjacent to water injection wells” (E.I. du Pont de Nemours and Company, priority 2010, dated 2013).

Experiments:
[1] = Example 2: 1N HCl titration of amine-coated core sand (38 mg amine on 10.18 gr sand) in 100 ml brine #2, amine in solution by GC; type: physicochemical
Method: Helium was used as the carrier gas.
38 milligrams (mg) of N N-Dimethyl-1-Dodecanamine (hereafter referred to as “the amine”) was added to 10.210 gr of Pentane. This solution was added to 10.1845 gr of specific sand layers (Oa and Ob) obtained from the Schrader Bluff formation of the Milne Point Unit of the Alaskan North slope. The oil content of the sand was first removed using a mixture of methanol and toluene (50/50, volume/volume) as solvent washes. The solvent mixture was subsequently evaporated off the core sand to produce clean, dry, flowable core sand. This sand was mixed with the amine and pentane solution to produce a slurry. This slurry was thoroughly mixed and the pentane was evaporated off leaving the amine on the sand (hereafter referred to as sand/amine mixture). 100 ml of brine #2 (Table 3) was added to the sand/amine mixture to create the sand/amine/brine mixture. […] The fact that the amine was not detected underlined its strong binding to the sand particles. […] The data underlines the remarkable efficiency of an acid at ionizing and removing the amine from the sand.

[2] = Example 5: 10% acetic acid titration of amine-coated core sand (30.85 gr sand/amine mixture) in 100 ml brine #2, amine in solution by GC
Method: (§1) Concentration of amines, in media and water, were analyzed by gas chromatography (GC). An Agilent Model 5890 (Agilent, Wilmington, Del.), GC equipped with a […] and a split/splitless injector, a DB-FFAP column (30 meter length×0.32 millimeter (mm) […]×0.25 micrometer particle size). […] The system was calibrated using a sample of N,N-Dimethyl-1-Dodecaneamine (Aldrich). Helium was used as the carrier gas. A temperature gradient of 50 degrees Celsius (° C.) to 250° C. at 30° C. increase per minute (min) was used.
The same procedure outlined in Example 4 was repeated here to produce the sand/amine mixture. 30.85 grams (gr) of the sand/amine mixture was added to 100 ml of brine #2 (Table 3) to create the sand/amine/brine mixture.

[3] = Example 4: 10% nitric acid titration of amine-coated core sand (29.065 gr sand/amine mixture) in 100 ml brine #2, amine in solution by GC
Method: as §1
The procedure outlined in Example 2 was used to produce the sand/amine mixture except that 519 mg of the amine, 10 gr of Pentane. and 60.062 gr of sand from the Oa and Ob layers were used. 29.065 gr of this sand/amine mixture was added to 100 ml of brine #2 (Table 3) to create the sand/amine/brine mixture. […] The concentration of the amine in the water should have been about […] if all the amine was dissolved in brine #2. […] 0.1 ml of 10 weight percent (wt %) nitric acid in water was added to this solution, and the pH and the amine concentration were measured again.

## CCCCCCCCCCCCN(C)C [N-N-dimethyl-1-dodeanamine, N N-Dimethyl-1-Dodecanamine]
[1]; sample Amine titrate 1, pH 7.37
  First derivative (change in amine/change in pH): 63.75
[1]; sample Amine titrate 1, pH 7.37, +0.10 ml 1N HCl
  N-N-dimethyl-1-dodeanamine (ppm) in slim tube effluent: 46.41 ppm
[1]; sample Amine titrate 2, pH 7.21
  First derivative (change in amine/change in pH): 63.42
[1]; sample Amine titrate 2, pH 7.21, +0.10 ml 1N HCl
  N-N-dimethyl-1-dodeanamine (ppm) in slim tube effluent: 59.29 ppm
[1]; sample Amine titrate 3, pH 7.03
  First derivative (change in amine/change in pH): 24.34
[1]; sample Amine titrate 3, pH 7.03, +0.10 ml 1N HCl
  N-N-dimethyl-1-dodeanamine (ppm) in slim tube effluent: 67.97 ppm
[1]; sample Amine titrate 4, pH 6.59
  First derivative (change in amine/change in pH): 160.35
[1]; sample Amine titrate 4, pH 6.59, +0.10 ml 1N HCl
  N-N-dimethyl-1-dodeanamine (ppm) in slim tube effluent: 74.38 ppm
[1]; sample Amine titrate 5, pH 6.13
  First derivative (change in amine/change in pH): 412.18
[1]; sample Amine titrate 5, pH 6.13, +0.10 ml 1N HCl
  N-N-dimethyl-1-dodeanamine (ppm) in slim tube effluent: 212.28 ppm
[1]; sample Amine titrate 6, pH 6.07
  First derivative (change in amine/change in pH): 679.86
[1]; sample Amine titrate 6, pH 6.07, +0.10 ml 1N HCl
  N-N-dimethyl-1-dodeanamine (ppm) in slim tube effluent: 288.72 ppm
[1]; sample Amine titrate 7, pH 6.04
  First derivative (change in amine/change in pH): −148.78
[1]; sample Amine titrate 7, pH 6.04, +0.05 ml 1N HCl
  N-N-dimethyl-1-dodeanamine (ppm) in slim tube effluent: 273.47 ppm
[1]; sample Amine titrate 8, pH 5.98
  First derivative (change in amine/change in pH): 119.35
[1]; sample Amine titrate 8, pH 5.98, +0.05 ml 1N HCl
  N-N-dimethyl-1-dodeanamine (ppm) in slim tube effluent: 275.33 ppm
[1]; sample Amine titrate 9, pH 5.79
  First derivative (change in amine/change in pH): 65.90
[1]; sample Amine titrate 9, pH 5.79, +0.05 ml 1N HCl
  N-N-dimethyl-1-dodeanamine (ppm) in slim tube effluent: 303.31 ppm
[1]; sample Amine titrate 10, pH 5.39
  First derivative (change in amine/change in pH): 15.17
[1]; sample Amine titrate 10, pH 5.39, +0.05 ml 1N HCl
  N-N-dimethyl-1-dodeanamine (ppm) in slim tube effluent: 314.21 ppm
[1]; sample Amine titrate 11, pH 4.13
  First derivative (change in amine/change in pH): 3.24
[1]; sample Amine titrate 11, pH 4.13, +0.05 ml 1N HCl
  N-N-dimethyl-1-dodeanamine (ppm) in slim tube effluent: 328.48 ppm
[1]; sample Amine titrate 12, pH 3.19
  First derivative (change in amine/change in pH): 11.80
[1]; sample Amine titrate 12, pH 3.19, +0.05 ml 1N HCl
  N-N-dimethyl-1-dodeanamine (ppm) in slim tube effluent: 321.33 ppm
[1]; sample Amine titrate 13, pH 2.91
  First derivative (change in amine/change in pH): 47.42
[1]; sample Amine titrate 13, pH 2.91, +0.05 ml 1N HCl
  N-N-dimethyl-1-dodeanamine (ppm) in slim tube effluent: 342.88 ppm
[1]; sample Amine titrate 14, pH 2.74
  First derivative (change in amine/change in pH): −6.52
[1]; sample Amine titrate 14, pH 2.74, +0.05 ml 1N HCl
  N-N-dimethyl-1-dodeanamine (ppm) in slim tube effluent: 342.67 ppm
[1]; sample Amine titrate 15, pH 2.61
  First derivative (change in amine/change in pH): 79.86
[1]; sample Amine titrate 15, pH 2.61, +0.05 ml 1N HCl
  N-N-dimethyl-1-dodeanamine (ppm) in slim tube effluent: 340.92 ppm
[1]; sample Amine titrate 16, pH 2.41
  First derivative (change in amine/change in pH): 80.22
[1]; sample Amine titrate 16, pH 2.41, +0.10 ml 1N HCl
  N-N-dimethyl-1-dodeanamine (ppm) in slim tube effluent: 369.02 ppm
[1]; sample Amine titrate 17, pH 2.27
  First derivative (change in amine/change in pH): 2.25
[1]; sample Amine titrate 17, pH 2.27, +0.10 ml 1N HCl
  N-N-dimethyl-1-dodeanamine (ppm) in slim tube effluent: 368.19 ppm
[1]; sample Amine titrate 18, pH 2.18
  First derivative (change in amine/change in pH): 7.51
[1]; sample Amine titrate 18, pH 2.18, +0.10 ml 1N HCl
  N-N-dimethyl-1-dodeanamine (ppm) in slim tube effluent: 369.54 ppm
[1]; sample Amine titrate 19, pH 2.10
  First derivative (change in amine/change in pH): 0.12
[1]; sample Amine titrate 19, pH 2.10, +0.10 ml 1N HCl
  N-N-dimethyl-1-dodeanamine (ppm) in slim tube effluent: 369.47 ppm
[1]; sample Amine titrate 20, pH 2.04, +0.10 ml 1N HCl
  N-N-dimethyl-1-dodeanamine (ppm) in slim tube effluent: 369.56 ppm
[1]; sample Amine titrate st, pH 8.14, 0.00 ml 1N HCl
  N-N-dimethyl-1-dodeanamine (ppm) in slim tube effluent: 0.00 ppm
[1]; sample Amine titrate st, pH 8.14, 0.00 ml 1N HCl, listed as N N-Dimethyl-1-Dodecanamine
  N-N-dimethyl-1-dodeanamine (ppm) in slim tube effluent: < 1 ppm
[1]; titration with 1N HCl
  pH at which complete ionization and solubilization of the amine in the water was observed: < 6.0
[2]; sample 1, pH 8.01, +0.1 ml 10% acetic acid
  ppm N-N-dimethyl-1-dodeanamine: 63 ppm
[2]; sample 2, pH 7.41, +0.1 ml 10% acetic acid
  ppm N-N-dimethyl-1-dodeanamine: 107 ppm
[2]; sample 3, pH 7.4, +0.1 ml 10% acetic acid
  ppm N-N-dimethyl-1-dodeanamine: 215 ppm
[2]; sample 4, pH 7.37, +0.1 ml 10% acetic acid
  ppm N-N-dimethyl-1-dodeanamine: 497 ppm
[2]; sample 5, pH 7.23, +0.1 ml 10% acetic acid
  ppm N-N-dimethyl-1-dodeanamine: 512 ppm
[2]; sample 6, pH 7.12, +0.1 ml 10% acetic acid
  ppm N-N-dimethyl-1-dodeanamine: 969 ppm
[2]; sample 7, pH 6.98, +0.1 ml 10% acetic acid
  ppm N-N-dimethyl-1-dodeanamine: 1239 ppm
[2]; sample 8, pH 6.89, +0.1 ml 10% acetic acid
  ppm N-N-dimethyl-1-dodeanamine: 1453 ppm
[2]; sample 9, pH 6.75, +0.1 ml 10% acetic acid
  ppm N-N-dimethyl-1-dodeanamine: 1583 ppm
[2]; sample 10, pH 6.56, +0.1 ml 10% acetic acid
  ppm N-N-dimethyl-1-dodeanamine: 1579 ppm
[2]; sample 11, pH 6.39, +0.1 ml 10% acetic acid
  ppm N-N-dimethyl-1-dodeanamine: 1616 ppm
[2]; sample 12, pH 6.4, +0.1 ml 10% acetic acid
  ppm N-N-dimethyl-1-dodeanamine: 1759 ppm
[2]; sample 13, pH 6.02, +0.2 ml 10% acetic acid
  ppm N-N-dimethyl-1-dodeanamine: 1736 ppm
[2]; sample 14, pH 5.4, +0.2 ml 10% acetic acid
  ppm N-N-dimethyl-1-dodeanamine: 1718 ppm
[2]; sample 15, pH 5.04, +0.2 ml 10% acetic acid
  ppm N-N-dimethyl-1-dodeanamine: 1743 ppm
[2]; sample 16, pH 4.86, +0.2 ml 10% acetic acid
  ppm N-N-dimethyl-1-dodeanamine: 1931 ppm
[2]; sample 17, pH 4.73, +0.2 ml 10% acetic acid
  ppm N-N-dimethyl-1-dodeanamine: 1995 ppm
[2]; sample 18, pH 4.61, +0.2 ml 10% acetic acid
  ppm N-N-dimethyl-1-dodeanamine: 1913 ppm
[2]; sample 19, pH 4.52, +0.2 ml 10% acetic acid
  ppm N-N-dimethyl-1-dodeanamine: 1881 ppm
[2]; sample 20, pH 4.43, +0.2 ml 10% acetic acid
  ppm N-N-dimethyl-1-dodeanamine: 1837 ppm
[2]; sample 21, pH 4.36, +0.3 ml 10% acetic acid
  ppm N-N-dimethyl-1-dodeanamine: 1885 ppm
[2]; sample start, pH 8.52, 0 ml 10% acetic acid
  ppm N-N-dimethyl-1-dodeanamine: ~67 ppm
[2]; titration with 10 wt % acetic acid
  pH at which complete ionization and solubilization in the water of the amine was observed: < 6.7
[3]; sample 1, pH 8.13, +0.1 ml 10% HNO3
  ppm N-N-dimethyl-1-dodeanamine: 110 ppm
[3]; sample 2, pH 7.72, +0.1 ml 10% HNO3
  ppm N-N-dimethyl-1-dodeanamine: 211 ppm
[3]; sample 3, pH 7.42, +0.1 ml 10% HNO3
  ppm N-N-dimethyl-1-dodeanamine: 216 ppm
[3]; sample 4, pH 7.25, +0.1 ml 10% HNO3
  ppm N-N-dimethyl-1-dodeanamine: 235 ppm
[3]; sample 5, pH 7.2, +0.1 ml 10% HNO3
  ppm N-N-dimethyl-1-dodeanamine: 540 ppm
[3]; sample 6, pH 7.29, +0.1 ml 10% HNO3
  ppm N-N-dimethyl-1-dodeanamine: 745 ppm
[3]; sample 7, pH 7.33, +0.1 ml 10% HNO3
  ppm N-N-dimethyl-1-dodeanamine: 1153 ppm
[3]; sample 8, pH 7.29, +0.1 ml 10% HNO3
  ppm N-N-dimethyl-1-dodeanamine: 1210 ppm
[3]; sample 9, pH 7.18, +0.1 ml 10% HNO3
  ppm N-N-dimethyl-1-dodeanamine: 1327 ppm
[3]; sample 10, pH 7.11, +0.1 ml 10% HNO3
  ppm N-N-dimethyl-1-dodeanamine: 1315 ppm
[3]; sample 11, pH 6.99, +0.1 ml 10% HNO3
  ppm N-N-dimethyl-1-dodeanamine: 1413 ppm
[3]; sample 12, pH 6.85, +0.1 ml 10% HNO3
  ppm N-N-dimethyl-1-dodeanamine: 1667 ppm
[3]; sample 13, pH 6.73, +0.1 ml 10% HNO3
  ppm N-N-dimethyl-1-dodeanamine: 1897 ppm
[3]; sample 14, pH 6.64, +0.1 ml 10% HNO3
  ppm N-N-dimethyl-1-dodeanamine: 1853 ppm
[3]; sample 15, pH 6.59, +0.1 ml 10% HNO3
  ppm N-N-dimethyl-1-dodeanamine: 1858 ppm
[3]; sample 16, pH 6.28, +0.2 ml 10% HNO3
  ppm N-N-dimethyl-1-dodeanamine: 1788 ppm
[3]; sample 17, pH 5.8, +0.2 ml 10% HNO3
  ppm N-N-dimethyl-1-dodeanamine: 1822 ppm
[3]; sample 18, pH 3.46, +0.2 ml 10% HNO3
  ppm N-N-dimethyl-1-dodeanamine: 1975 ppm
[3]; sample start, pH 8.28, 0 ml 10% HNO3
  ppm N-N-dimethyl-1-dodeanamine: ~85 ppm
[3]; titration with 10 wt % nitric acid
  pH at which complete ionization and solubilization in the water of the amine was observed: < 6.7
